# Measured values as given in PubChem BioAssay (NCI).
#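 Interpolation was linear, between the two tested concentrations surrounding the appropriate level; five concentrations were tested over 48 hours in 96-well plates. Definition used: TGI = concentration required for complete inhibition of growth.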
# Assays:
# Test in all cases: growth of human tumour cells (NCI), 48 h
# 786-0 renal = test system: 786-0 renal
# CCRF-CEM leukemia = test system: CCRF-CEM leukemia
# HL-60(TB) leukemia = test system: HL-60(TB) leukemia
# HOP-92 NSCLC = test system: HOP-92 NSCLC
# HT29 colon = test system: HT29 colon
# IGROV1 ovarian = test system: IGROV1 ovarian
# MDA-MB-231 breast = test system: MDA-MB-231 breast
# MDA-MB-435 = test system: MDA-MB-435
# MOLT-4 leukemia = test system: MOLT-4 leukemia
# NCI-H23 lung = test system: NCI-H23 lung
# NCI/ADR-RES ovarian = test system: NCI/ADR-RES ovarian
# OVCAR-3 ovarian = test system: OVCAR-3 ovarian
# OVCAR-4 ovarian = test system: OVCAR-4 ovarian
# OVCAR-8 ovarian = test system: OVCAR-8 ovarian
# RPMI-8226 leukemia = test system: RPMI-8226 leukemia
# SF-268 CNS = test system: SF-268 CNS
# SF-295 CNS = test system: SF-295 CNS
# UO-31 renal = test system: UO-31 renal
# HCT-116 colon = test system: HCT-116 colon
# DU-145 prostate = test system: DU-145 prostate
SMILES,TGI (786-0 renal),TGI (CCRF-CEM leukemia),TGI (HL-60(TB) leukemia),TGI (HOP-92 NSCLC),TGI (HT29 colon),TGI (IGROV1 ovarian),TGI (MDA-MB-231 breast),TGI (MDA-MB-435),TGI (MOLT-4 leukemia),TGI (NCI-H23 lung),TGI (NCI/ADR-RES ovarian),TGI (OVCAR-3 ovarian),TGI (OVCAR-4 ovarian),TGI (OVCAR-8 ovarian),TGI (RPMI-8226 leukemia),TGI (SF-268 CNS),TGI (SF-295 CNS),TGI (UO-31 renal),TGI (HCT-116 colon),TGI (DU-145 prostate)
CCCCNC(=S)/N=C/c1c(O)c2ccccc2[nH]c1=O,> 10 µM,> 10 µM,> 10 µM,> 10 µM,> 10 µM,> 10 µM,> 10 µM,> 10 µM,> 10 µM,> 10 µM,> 10 µM,> 10 µM,> 10 µM,> 10 µM,> 10 µM,> 10 µM,> 10 µM,> 10 µM,,
CCC(=O)N/N=C(\C=C\c1cccc(O)c1)c1sc(Nc2ccc(C)cc2[N+](=O)[O-])nc1C,> 100 µM,> 100 µM,> 100 µM,27.5 µM,40.6 µM,> 100 µM,,,> 100 µM,6.72 µM,,> 100 µM,> 100 µM,> 100 µM,> 100 µM,> 100 µM,> 100 µM,> 100 µM,> 100 µM,
CC(=O)c1sc(=N)n(-c2c(C)cccc2C)c1C,> 100 µM,> 100 µM,> 100 µM,,> 100 µM,> 100 µM,> 100 µM,> 100 µM,> 100 µM,> 100 µM,> 100 µM,> 100 µM,> 100 µM,,> 100 µM,> 100 µM,,> 100 µM,,> 100 µM
Cc1cc(Cl)ccc1C1OC(=O)c2c1ccc1ccccc21 (stereo unspecified),> 100 µM,> 100 µM,> 100 µM,> 100 µM,> 100 µM,> 100 µM,,,> 100 µM,> 100 µM,,> 100 µM,> 100 µM,> 100 µM,> 100 µM,> 100 µM,> 100 µM,> 100 µM,> 100 µM,
COc1ccc(CCc2nccn2C)cc1OC,> 100 µM,> 100 µM,> 100 µM,> 100 µM,> 100 µM,> 100 µM,,> 100 µM,> 100 µM,> 100 µM,> 100 µM,> 100 µM,> 100 µM,> 100 µM,> 100 µM,> 100 µM,> 100 µM,> 100 µM,> 100 µM,
CC(C)(C)S(=O)OC12CC3CC(CC(C3)C1)C2 (stereo unspecified),> 100 µM,> 100 µM,,,> 100 µM,> 100 µM,,,> 100 µM,> 100 µM,,> 100 µM,> 100 µM,> 100 µM,> 100 µM,> 100 µM,> 100 µM,> 100 µM,> 100 µM,
Cc1ccc(NC(=O)C(=O)Cc2cc[n+]([O-])cc2)cc1,> 100 µM,> 100 µM,> 100 µM,> 100 µM,> 100 µM,> 100 µM,,,> 100 µM,> 100 µM,,> 100 µM,> 100 µM,> 100 µM,> 100 µM,> 100 µM,> 100 µM,> 100 µM,> 100 µM,
O=C(/C=C(\O)c1ccccc1)c1cc(-c2ccccc2)n(-c2ccccc2)n1,67.8 µM,7.16 µM,> 100 µM,,18.7 µM,79.9 µM,64.4 µM,> 100 µM,4.51 µM,> 100 µM,> 100 µM,> 100 µM,,15.3 µM,6.1 µM,> 100 µM,> 100 µM,39.9 µM,> 100 µM,> 100 µM
O=C(CC1C(=O)c2ccccc2C1=C1C(=O)c2ccccc2C1=O)c1ccccc1 (stereo unspecified),> 100 µM,> 100 µM,> 100 µM,> 100 µM,> 100 µM,> 100 µM,,,> 100 µM,> 100 µM,,,> 100 µM,> 100 µM,> 100 µM,> 100 µM,> 100 µM,> 100 µM,,
CN(C)Cc1cc(C(C)(C)C)cc(C2CCCCC2)c1O,41.5 µM,27.1 µM,33.9 µM,,13.5 µM,34.8 µM,26.7 µM,36.6 µM,22.6 µM,72.2 µM,44.4 µM,28.3 µM,24.4 µM,26.4 µM,,32.5 µM,,32.5 µM,> 100 µM,27.8 µM
CCOC(OC1=C(C#N)CCCC1)C(C)[Se]c1ccccc1 (stereo unspecified),31.4 µM,65 µM,49.4 µM,67.3 µM,> 100 µM,> 100 µM,,,79.9 µM,39.4 µM,,> 100 µM,47.6 µM,63.9 µM,84 µM,46.6 µM,> 100 µM,> 100 µM,> 100 µM,
N#CCCN(CCN(CCC#N)C(=O)Nc1ccccc1)C(=O)Nc1ccccc1,> 100 µM,> 100 µM,> 100 µM,> 100 µM,> 100 µM,> 100 µM,> 100 µM,,> 100 µM,> 100 µM,> 100 µM,,,> 100 µM,> 100 µM,87.9 µM,> 100 µM,> 100 µM,> 100 µM,> 100 µM
NCc1cc(O)c(O)c(O)c1,> 100 µM,> 100 µM,> 100 µM,> 100 µM,> 100 µM,> 100 µM,,,> 100 µM,,,> 100 µM,> 100 µM,> 100 µM,> 100 µM,> 100 µM,> 100 µM,> 100 µM,> 100 µM,
COC(=O)c1ccc(NCc2cc(O)ccc2O)cc1,22.3 µM,10.8 µM,8.58 µM,29.1 µM,50.7 µM,24.5 µM,,17.3 µM,31.5 µM,32.9 µM,36.9 µM,27.6 µM,30.5 µM,40.1 µM,34.7 µM,31.5 µM,35 µM,26.3 µM,35.7 µM,24.8 µM
CCC1CN2CCC3(c4ccccc4)CC(C(=O)OC)=CC1C23 (stereo unspecified),31.9 µM,> 100 µM,,25.9 µM,31.7 µM,47.3 µM,,,> 100 µM,28.9 µM,,33.8 µM,27.8 µM,33.7 µM,> 100 µM,27.7 µM,33.1 µM,27.1 µM,29.4 µM,
CCc1cc2c(oc3cc(C)ccc32)c(=O)n1C,> 10 µM,> 10 µM,> 10 µM,> 10 µM,> 10 µM,> 10 µM,> 10 µM,> 10 µM,> 10 µM,> 10 µM,,> 10 µM,> 10 µM,> 10 µM,,> 10 µM,> 10 µM,> 10 µM,> 10 µM,> 10 µM
c1ccc2cc3c(cc2c1)nc1ccccn13,> 100 µM,> 100 µM,> 100 µM,> 100 µM,,> 100 µM,,> 100 µM,> 100 µM,> 100 µM,> 100 µM,> 100 µM,,> 100 µM,> 100 µM,> 100 µM,> 100 µM,> 100 µM,> 100 µM,> 100 µM
O=C1c2ccccc2-c2c1c(-c1cccc(Br)c1)nc1ccc3ccccc3c21,> 100 µM,> 100 µM,,,> 100 µM,,> 100 µM,> 100 µM,> 100 µM,> 100 µM,> 100 µM,> 100 µM,> 100 µM,> 100 µM,> 100 µM,> 100 µM,> 100 µM,> 100 µM,> 100 µM,> 100 µM
Cc1ccccc1N=NC(C(=O)c1ccccc1)C(=O)c1ccccc1,78.3 µM,53.9 µM,37.9 µM,46.4 µM,> 100 µM,> 100 µM,,,74.3 µM,55.2 µM,,> 100 µM,85.3 µM,> 100 µM,60.9 µM,> 100 µM,> 100 µM,50.2 µM,54.4 µM,
COc1ccc(CCNCCCC2c3ccccc3-c3ccccc32)cc1OC,28.9 µM,49 µM,47.7 µM,18.2 µM,16.1 µM,26.8 µM,,28.3 µM,41.8 µM,28.9 µM,33.2 µM,31.2 µM,30.5 µM,41.8 µM,22 µM,30.3 µM,29.2 µM,24.4 µM,25.8 µM,28.9 µM
N#Cc1sc2c(c1O)c(=O)n(-c1ccccc1)c(=S)n2-c1ccccc1,> 100 µM,,> 100 µM,> 100 µM,> 100 µM,> 100 µM,> 100 µM,> 100 µM,,> 100 µM,,> 100 µM,> 100 µM,> 100 µM,> 100 µM,> 100 µM,> 100 µM,> 100 µM,,> 100 µM
O=[N+]([O-])c1cccc(C2=NOC3C4CCC(C4)C23)c1 (stereo unspecified),> 100 µM,,,> 100 µM,> 100 µM,> 100 µM,,,> 100 µM,> 100 µM,,> 100 µM,> 100 µM,> 100 µM,> 100 µM,> 100 µM,> 100 µM,> 100 µM,> 100 µM,
CC(CCCOC(c1ccccc1)(c1ccccc1)c1ccccc1)OC(=O)Nc1ccccc1 (stereo unspecified),29.9 µM,33.1 µM,31.4 µM,21.7 µM,25.8 µM,30 µM,,,24 µM,21.7 µM,,26.9 µM,25 µM,27.1 µM,42.1 µM,25.9 µM,25.3 µM,23.7 µM,23 µM,
C[N+](C)=c1nc(N2CCc3ccccc3C2)ss1,> 100 µM,> 100 µM,> 100 µM,,,> 100 µM,,,> 100 µM,,,> 100 µM,> 100 µM,> 100 µM,> 100 µM,> 100 µM,,> 100 µM,> 100 µM,
COc1cc2c(cc1OC)C(=O)N(NC1=NCCN1)C2=O,> 100 µM,> 100 µM,> 100 µM,,> 100 µM,> 100 µM,> 100 µM,> 100 µM,> 100 µM,> 100 µM,> 100 µM,> 100 µM,> 100 µM,> 100 µM,> 100 µM,> 100 µM,> 100 µM,,> 100 µM,> 100 µM
C=CCN1CN(c2ccccc2)C2(CCN(CCCC3(c4ccc(F)cc4)OCCO3)CC2)C1=O,33.6 µM,41.4 µM,29 µM,,20.4 µM,39.4 µM,33.7 µM,,39.6 µM,30 µM,28.2 µM,27.7 µM,,32.5 µM,34.2 µM,38.5 µM,33 µM,22.3 µM,28.4 µM,61.1 µM
COc1ccccc1CNC(=O)[C@H](Cc1ccc(O)cn1)NC(C)=O,> 100 µM,> 100 µM,> 100 µM,> 100 µM,> 100 µM,> 100 µM,,> 100 µM,,> 100 µM,> 100 µM,> 100 µM,> 100 µM,,> 100 µM,> 100 µM,> 100 µM,> 100 µM,> 100 µM,> 100 µM
COc1ccc2c(c1)CCC(OS(=O)(=O)CC13CCC(CC1=O)C3(C)C)C2=O (stereo unspecified),40.4 µM,> 100 µM,47.5 µM,93.2 µM,,,,,55.9 µM,36.1 µM,,66.9 µM,> 100 µM,38.6 µM,57.2 µM,59.8 µM,,> 100 µM,53.3 µM,
Cc1ccc(S(=O)(=O)c2c(N)n(CCN(C)C)c3nc4ccccc4nc23)cc1,> 100 µM,> 100 µM,> 100 µM,> 100 µM,> 100 µM,> 100 µM,,,> 100 µM,> 100 µM,,> 100 µM,> 100 µM,> 100 µM,> 100 µM,> 100 µM,> 100 µM,> 100 µM,> 100 µM,
